Here are results for three compounds from patent US20240400577A1, “MODULATORS OF PROTEIN KINASES” (VIBLIOME THERAPEUTICS, LLC, priority 2021, published 2024).

The IC50 is the concentration at which inhibition is half-maximal.

The target in one assay is T1, PLK4 (Homo sapiens, UniProt O00444).
T1 construct: Nanosyn (contract laboratory that ran the panel)
T1 sequence (O00444 1-970): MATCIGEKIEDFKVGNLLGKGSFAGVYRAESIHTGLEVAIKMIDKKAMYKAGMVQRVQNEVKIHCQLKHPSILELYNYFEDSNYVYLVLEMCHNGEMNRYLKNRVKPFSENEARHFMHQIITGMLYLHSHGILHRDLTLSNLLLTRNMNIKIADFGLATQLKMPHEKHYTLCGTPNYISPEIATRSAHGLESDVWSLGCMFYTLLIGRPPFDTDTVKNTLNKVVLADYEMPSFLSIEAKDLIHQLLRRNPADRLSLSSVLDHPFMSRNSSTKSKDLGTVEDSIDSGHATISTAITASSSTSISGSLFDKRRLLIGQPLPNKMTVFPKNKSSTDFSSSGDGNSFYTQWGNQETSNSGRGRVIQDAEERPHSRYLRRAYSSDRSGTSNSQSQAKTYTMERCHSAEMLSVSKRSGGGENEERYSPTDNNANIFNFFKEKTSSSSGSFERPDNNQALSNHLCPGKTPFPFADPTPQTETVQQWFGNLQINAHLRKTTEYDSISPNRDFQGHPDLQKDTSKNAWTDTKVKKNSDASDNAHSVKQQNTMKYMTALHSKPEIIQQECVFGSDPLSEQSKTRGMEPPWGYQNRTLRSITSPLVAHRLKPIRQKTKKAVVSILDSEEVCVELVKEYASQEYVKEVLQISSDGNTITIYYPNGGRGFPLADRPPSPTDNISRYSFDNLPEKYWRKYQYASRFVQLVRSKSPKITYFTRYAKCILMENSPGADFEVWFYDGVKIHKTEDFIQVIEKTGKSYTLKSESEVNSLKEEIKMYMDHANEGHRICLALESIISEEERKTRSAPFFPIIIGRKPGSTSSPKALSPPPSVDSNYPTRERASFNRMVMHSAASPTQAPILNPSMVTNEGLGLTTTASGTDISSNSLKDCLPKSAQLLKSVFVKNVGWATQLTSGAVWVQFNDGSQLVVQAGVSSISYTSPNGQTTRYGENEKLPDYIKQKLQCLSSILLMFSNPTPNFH
Nature of the assay: Kinase panel enzymatic inhibition assay (Nanosyn). It is filed as biochemical. Conditions: ATP at Km; 30-minute pre-incubation; read-out: kinase inhibition in terms of IC50, PLK4. A digest of the protocol:
(§1)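 Read-out is percent inhibition or IC50, obtained by mobility shift, ADP detection or time-resolved fluorescence detection. Each kinase was run with ATP at its Km, and compound at 5 μM was pre-incubated for 30 minutes.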

The target of the next assay is T2, MER (Homo sapiens, UniProt Q12866).
T2 construct: Nanosyn (contract laboratory that ran the panel)
T2 sequence (Q12866 21-999): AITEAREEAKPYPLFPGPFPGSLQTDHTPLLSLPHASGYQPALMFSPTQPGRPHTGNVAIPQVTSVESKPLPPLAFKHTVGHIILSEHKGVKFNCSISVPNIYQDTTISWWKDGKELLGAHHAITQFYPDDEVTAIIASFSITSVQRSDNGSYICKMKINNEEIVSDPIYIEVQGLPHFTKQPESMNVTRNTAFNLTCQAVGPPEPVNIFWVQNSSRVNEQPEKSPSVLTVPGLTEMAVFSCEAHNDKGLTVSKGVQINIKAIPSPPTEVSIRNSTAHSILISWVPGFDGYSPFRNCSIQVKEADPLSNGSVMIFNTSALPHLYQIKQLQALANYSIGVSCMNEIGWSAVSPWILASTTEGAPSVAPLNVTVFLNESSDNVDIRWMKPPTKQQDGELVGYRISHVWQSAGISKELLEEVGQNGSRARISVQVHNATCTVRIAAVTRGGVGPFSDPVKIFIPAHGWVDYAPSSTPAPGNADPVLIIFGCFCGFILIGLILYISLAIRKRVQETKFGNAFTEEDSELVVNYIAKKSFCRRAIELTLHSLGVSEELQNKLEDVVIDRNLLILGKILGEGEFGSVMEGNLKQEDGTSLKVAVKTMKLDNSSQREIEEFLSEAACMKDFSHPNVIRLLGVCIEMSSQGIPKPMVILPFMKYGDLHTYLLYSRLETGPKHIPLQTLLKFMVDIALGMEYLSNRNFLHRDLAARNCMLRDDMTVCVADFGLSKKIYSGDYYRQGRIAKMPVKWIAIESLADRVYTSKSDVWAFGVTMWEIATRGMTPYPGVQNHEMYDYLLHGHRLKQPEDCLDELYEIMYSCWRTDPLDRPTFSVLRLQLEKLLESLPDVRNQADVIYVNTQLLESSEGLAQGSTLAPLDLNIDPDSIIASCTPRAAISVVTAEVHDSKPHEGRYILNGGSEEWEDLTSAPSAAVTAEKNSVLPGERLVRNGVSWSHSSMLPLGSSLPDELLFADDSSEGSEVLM
Nature of the assay: Kinase panel enzymatic inhibition assay (Nanosyn). It is filed as biochemical. Conditions: ATP at Km; 30-minute pre-incubation; read-out: kinase inhibition in terms of IC50, MER. A digest of the protocol:
as §1

On to `COc1cc2nccc(Oc3ccc(NC(=O)c4cc(S(C)(=O)=O)n(-c5ccc(F)cc5)n4)c(F)c3)c2cc1OC` [Ex71, N-(4-((6,7-dimethoxyquinolin-4-yl)oxy)-2-fluorophenyl)-1-(4-fluorophenyl)-5-(methylsulfonyl)-1H-pyrazole-3-carboxamide], for which the concentration for half-maximal inhibition (IC50) was 1000 to 10000 nM on PLK4 and < 500 nM at MER.

As to `COc1cc2nccc(Oc3ccc(NC(=O)c4cc(S(C)(=O)=O)n(-c5ccc(F)cc5)n4)cc3)c2cc1OC` [Ex72, N-(4-((6,7-dimethoxyquinolin-4-yl)oxy)phenyl)-1-(4-fluorophenyl)-5-(methylsulfonyl)-1H-pyrazole-3-carboxamide], the IC50 on PLK4 and on MER was 500 to 1000 nM in each case.

On to `COc1cc2nccc(Oc3ccc(NC(=O)c4cc(S(C)(=O)=O)n(-c5ccc(F)cc5)n4)cc3F)c2cc1OC` [Ex73, N-(4-((6,7-dimethoxyquinolin-4-yl)oxy)-3-fluorophenyl)-1-(4-fluorophenyl)-5-(methylsulfonyl)-1H-pyrazole-3-carboxamide], for which the half-maximal inhibitory concentration (IC50) at PLK4 and on MER was < 500 nM in each case.
